# Data published in patent US20130310379A1, “MODULATORS OF METHYL MODIFYING ENZYMES, COMPOSITIONS AND USES THEREOF” (CONSTELLATION PHARMACEUTICALS, priority 2010, published 2013).
# Tests used:
# Y641N EZH2 = Y641N EZH2 (Homo sapiens, UniProt Q15910, Y641N); experiment: Y641N EZH2 assay: performed as the EZH2 assay, using reconstituted H3K27Me2 oligonucleosomes as substrate; format: biochemical
# Procedure: Assays were carried out by mixing rPRC2 together with biotinylated oligonucleosome substrates in the presence of the radio-labeled enzyme co-factor, S-adenosyl-L-methionine (^3H SAM) (Perkin Elmer) and monitoring the enzymatically mediated transfer of tritiated methyl groups from ^3H SAM to histone lysine residues. The amount of resulting tritated methylhistone product was measured by first capturing the biotinylated oligonuclesomes in streptavidin (SAV) coated FlashPlates (Perkin Elmer), followed by a wash step to remove un-reacted ^3H SAM, and then counting on a TopCount NXT 384 well plate scintillation counter (Perkin Elmer). The final assay conditions for EZH2 were as follows: 50 mM Tris Buffer pH 8.5, 1 mM DTT, 69 uM Brij-35 detergent, 5.0 mM MgCl2, 0.1 mg/mL BSA, 0.2 uM ^3H SAM, 0.2 uM biotinylated oligonucleosomes, 3.6 uM H3K27me3 peptide and 2 nM EZH2.
# Compound IC50 measurements were obtained as follows: Compounds were first dissolved in 100% DMSO as 10 mM stock solutions. […] A 12.5 uL volume of the HMT enzyme, H3K27me3 peptide and oligonucleosome substrate in assay buffer was added to each well of the assay plate using a Multidrop Combi (ThermoFisher). Compounds were pre-incubated with the enzyme for 20 min, followed by initiation of the methyltransferase reaction by addition of 12.5 uL of 3H SAM in assay buffer (final volume=25 uL). The final concentrations of compounds ranged from a top default concentration of 80 uM down to 0.16 uM in ten 2-fold dilution steps. Reactions were carried out for 60 minutes and quenched with 20 uL per well of 1.96 mM SAH, 50 mM Tris PH 8.5, 200 mM EDTA. Stopped reactions were transferred to SAV coated Flashplates (Perkin Elmer), incubated for 120 min, washed with a plate washer, and then read on the TopCount NXT (1.0 min/well) to measure the amount of methylhistone product formed during the reaction. The amount of methylhistone product was compared with the amount of product formed in the 0% and 100% inhibition control wells allowing the calculation of % Inhibition in the presence of the individual compounds at various concentrations. IC50's were computed using a 4 parameter fit non-linear curve fitting software package (XLFIT, part of the database package, ActivityBase (IDBS)) where the four parameters were IC50, Hill slope, pre-transitional baseline (0% INH), and post-transitional baseline (100% INH); with the latter two parameters being fixed to zero and 100%, respectively, by default.
# EZH2 = EZH2 (Homo sapiens, UniProt Q15910); experiment: EZH2 assay: rPRC2 with biotinylated oligonucleosome substrates and 3H SAM, FlashPlate scintillation counting, IC50; format: biochemical; settings: rPRC2, biotinylated oligonucleosome substrates, 3H SAM; read-out: EZH2 IC50
# Sequence of EZH2 (Q15910 whole entry): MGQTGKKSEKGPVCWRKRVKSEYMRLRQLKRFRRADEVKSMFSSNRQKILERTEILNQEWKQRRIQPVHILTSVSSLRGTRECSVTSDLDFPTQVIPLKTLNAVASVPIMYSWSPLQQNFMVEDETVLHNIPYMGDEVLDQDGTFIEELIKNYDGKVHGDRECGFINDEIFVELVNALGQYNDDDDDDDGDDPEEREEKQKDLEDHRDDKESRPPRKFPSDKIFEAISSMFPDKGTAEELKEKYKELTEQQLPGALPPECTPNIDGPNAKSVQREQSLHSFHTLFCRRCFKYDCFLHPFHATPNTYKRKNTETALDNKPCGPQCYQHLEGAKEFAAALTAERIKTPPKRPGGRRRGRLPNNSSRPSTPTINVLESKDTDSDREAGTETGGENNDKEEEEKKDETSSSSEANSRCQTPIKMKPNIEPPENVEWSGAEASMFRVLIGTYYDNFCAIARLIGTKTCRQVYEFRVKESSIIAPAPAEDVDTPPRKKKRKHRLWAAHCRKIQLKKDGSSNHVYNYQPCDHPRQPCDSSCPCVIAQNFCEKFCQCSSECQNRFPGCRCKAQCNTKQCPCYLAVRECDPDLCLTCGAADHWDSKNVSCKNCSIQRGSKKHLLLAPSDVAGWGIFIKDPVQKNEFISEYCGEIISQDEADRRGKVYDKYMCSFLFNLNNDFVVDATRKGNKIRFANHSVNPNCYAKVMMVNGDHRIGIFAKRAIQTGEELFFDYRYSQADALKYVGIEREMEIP
# Sequence of EZH2 (O75530 whole entry partner): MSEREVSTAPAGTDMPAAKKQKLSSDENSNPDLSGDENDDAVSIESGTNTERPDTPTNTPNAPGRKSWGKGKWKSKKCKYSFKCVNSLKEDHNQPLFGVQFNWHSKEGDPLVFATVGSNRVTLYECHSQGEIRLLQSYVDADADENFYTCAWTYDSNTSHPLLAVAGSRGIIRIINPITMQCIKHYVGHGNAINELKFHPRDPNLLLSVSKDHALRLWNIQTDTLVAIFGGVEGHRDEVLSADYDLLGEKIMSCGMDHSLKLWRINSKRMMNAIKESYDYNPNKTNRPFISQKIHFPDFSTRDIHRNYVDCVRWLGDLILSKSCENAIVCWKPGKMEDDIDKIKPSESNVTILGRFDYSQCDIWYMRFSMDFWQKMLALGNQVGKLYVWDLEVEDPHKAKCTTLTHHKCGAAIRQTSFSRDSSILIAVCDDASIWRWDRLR
# Sequence of EZH2 (Q15022 whole entry partner): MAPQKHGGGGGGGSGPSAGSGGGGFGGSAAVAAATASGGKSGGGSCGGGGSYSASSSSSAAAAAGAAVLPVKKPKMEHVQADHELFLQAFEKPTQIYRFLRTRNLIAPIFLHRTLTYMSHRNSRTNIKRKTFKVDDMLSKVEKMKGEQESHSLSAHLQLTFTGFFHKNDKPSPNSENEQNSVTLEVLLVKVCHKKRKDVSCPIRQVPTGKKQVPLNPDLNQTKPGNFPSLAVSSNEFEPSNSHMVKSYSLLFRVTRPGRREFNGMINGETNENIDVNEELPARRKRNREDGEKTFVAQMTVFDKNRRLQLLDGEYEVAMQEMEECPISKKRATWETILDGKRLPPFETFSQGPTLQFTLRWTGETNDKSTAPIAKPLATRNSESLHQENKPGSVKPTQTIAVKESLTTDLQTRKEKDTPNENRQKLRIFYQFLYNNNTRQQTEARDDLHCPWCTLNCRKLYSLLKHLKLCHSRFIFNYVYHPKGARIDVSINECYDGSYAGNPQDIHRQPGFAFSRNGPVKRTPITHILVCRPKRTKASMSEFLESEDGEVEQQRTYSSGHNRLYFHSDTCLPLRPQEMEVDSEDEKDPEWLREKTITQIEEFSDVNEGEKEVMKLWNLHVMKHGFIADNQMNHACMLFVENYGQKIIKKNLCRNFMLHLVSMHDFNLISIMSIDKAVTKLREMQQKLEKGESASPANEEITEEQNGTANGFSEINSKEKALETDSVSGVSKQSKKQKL
# Procedure, shortened: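 IC50 from 4-parameter fit, baselines fixed at 0 and 100%. Compounds (top 80 uM, 2-fold series to 0.16 uM) pre-incubated 20 min with 2 nM EZH2-PRC2; 60-min methylation in pH 8.5 Tris with 0.2 uM 3H SAM, 0.2 uM oligonucleosomes, 3.6 uM H3K27me3 peptide.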
# Sequence of Y641N EZH2 (Q15910 whole entry Y641N): as the sequence (Q15910 whole entry) above, with Y641N counted along it
# Sequence of Y641N EZH2 (O75530 whole entry partner): as the sequence (O75530 whole entry partner) above
# Sequence of Y641N EZH2 (Q15022 whole entry partner): as the sequence (Q15022 whole entry partner) above
Structure (SMILES),IC50 (Y641N EZH2) [µM],IC50 (EZH2) [µM]
CC1(C)CC(NC(=O)c2ccc(COc3ccccc3Br)cc2)CC(C)(C)N1 [Compound I-185],> 80,20 to 80
Cc1cnccc1-c1cccc(Oc2ccc(C(=O)NC3CC(C)(C)NC(C)(C)C3)cc2Cl)c1C#N [Compound I-572],< 5,< 5
Cc1cc(-c2cccc(Oc3ccc(C(=O)NC4CC(C)(C)NC(C)(C)C4)cc3Cl)c2C#N)cc(C)n1 [Compound I-585],5 to 20,< 5
CN1CCN(c2cccc(Oc3ccc(C(=O)NC4CC(C)(C)NC(C)(C)C4)cc3Cl)c2)CC1 [Compound I-417],> 80,20 to 80
CC(Oc1cccc(Oc2ccc(C(=O)NC3CC(C)(C)NC(C)(C)C3)cc2Cl)c1C#N)C(N)=O (stereo not shown) [Compound I-326],> 80,5 to 20
CC1(C)CC(NC(=O)c2ccc(Oc3cccc(-c4ccnnc4)c3C#N)c(Cl)c2)CC(C)(C)C1O (stereo not shown) [Compound I-548],20 to 80,< 5
CC1(C)CC(NC(=O)c2ccc(Oc3cccc(-c4ccc(N)nc4)c3)cc2)CC(C)(C)N1 [Compound I-228],> 80,5 to 20
CC1(C)CC(NC(=O)c2ccc(Cn3cnc4ccccc43)cc2)CC(C)(C)N1 [Compound I-405],> 80,20 to 80
Cc1cc(C(=O)NC2CC(C)(C)NC(C)(C)C2)ccc1Oc1cccc(-c2ccccc2)c1C#N [Compound I-260],20 to 80,< 5
CC1(C)CC(NC(=O)c2ccc(C(=O)c3ccccc3)cc2)CC(C)(C)N1 [Compound I-431],> 80,20 to 80
CC1(C)CC(NC(=O)c2ccc(Oc3cccc(NCC(N)=O)c3)c(Cl)c2)CC(C)(C)N1 [Compound I-304],> 80,5 to 20
CC1(C)CC(NC(=O)c2ccc(Oc3cccc(F)c3C#N)c(Cl)c2)CC(C)(C)N1 [Compound I-258],< 5,< 5
CC1(C)CC(NC(=O)c2ccc(COc3cccc(-c4ccc5[nH]ccc5c4)c3)cc2)CC(C)(C)N1 [Compound I-183],20 to 80,20 to 80
CCc1cccc(Oc2ccc(C(=O)NC3CC(C)(C)NC(C)(C)C3)cc2Br)c1C#N [Compound I-369],< 5,< 5
CC1(C)CC(NC(=O)c2ccc(Oc3cccc4cnccc34)c(Cl)c2)CC(C)(C)N1 [Compound I-324],5 to 20,< 5
CC1(C)CC(NC(=O)c2ccc(Oc3cccc(-c4ccnnc4)c3C#N)c(Cl)c2)CC(C)(C)C1=O [Compound I-564],> 80,< 5
CC1(C)CC(NC(=O)c2ccc(Oc3cccc(N4CCOCC4=O)c3)c(Cl)c2)CC(C)(C)N1 [Compound I-397],> 80,5 to 20
CC1(C)CC(NC(=O)c2ccc(Oc3cccc4cnccc34)cc2)CC(C)(C)N1 [Compound I-171],20 to 80,< 5
CC1(C)CC(NC(=O)c2ccc(Oc3cccc(-c4ccnnc4)c3C#N)c(Cl)c2)CC(C)(C)S1(=O)=O [Compound I-533],> 80,< 5
CC(=O)N1CCC(c2cccc(Oc3ccc(C(=O)NC4CC(C)(C)NC(C)(C)C4)cc3)c2C#N)CC1 [Compound I-536],20 to 80,< 5
CNCc1cccc(Oc2ccc(C(=O)NC3CC(C)(C)NC(C)(C)C3)cc2Cl)c1C#N [Compound I-381],20 to 80,< 5
"CC1(C)CC(NC(=O)c2ccc(Oc3cccc(-c4ccncn4)c3C#N)c(Cl)c2)CC(C)(C)N1 [Compound I-480, 3-Chloro-4-(2-cyano-3-(pyrimidin-4-yl)phenoxy)-N-(2,2,6,6-tetramethylpiperidin-4-yl)benzamide]",< 5,< 5
Cc1ccc(-c2cccc(Oc3ccc(C(=O)NC4CC(C)(C)NC(C)(C)C4)cc3Cl)c2C#N)cn1 [Compound I-362],5 to 20,< 5
CC1(C)CC(NC(=O)c2ccc(Oc3cccc(N4CCNCC4)c3)c(Cl)c2)CC(C)(C)N1 [Compound I-493],> 80,20 to 80
CC(=O)Nc1ccc(-c2cccc(OCc3ccc(C(=O)NC4CC(C)(C)NC(C)(C)C4)cc3)c2)cc1 [Compound I-167],20 to 80,20 to 80

Structure (SMILES),IC50 (Y641N EZH2) [µM],IC50 (EZH2) [µM]
CC1(C)CC(NC(=O)c2ccc(N3CCC(c4ccccc4)C3)c(Cl)c2)CC(C)(C)N1 (stereo not shown) [Compound I-413],> 80,20 to 80
CN(C)C(=O)Cn1cc(-c2cccc(Oc3ccc(C(=O)NC4CC(C)(C)NC(C)(C)C4)cc3Cl)c2C#N)cn1 [Compound I-395],5 to 20,< 5
CC1(C)CC(NC(=O)c2ccc(Oc3cccc(-c4ccnc(C#N)c4)c3C#N)c(Cl)c2)CC(C)(C)N1 [Compound I-561],< 5,< 5
CC1(C)CC(NC(=O)c2ccc(Oc3cccc(-c4cnccn4)c3C#N)c(Cl)c2)CC(C)(C)N1 [Compound I-428],5 to 20,< 5
N#Cc1ccccc1Oc1ccc(C(=O)NC2CCSCC2)cc1Cl [Compound I-427],> 80,> 80
Cc1cc(C(=O)NC2CC(C)(C)NC(C)(C)C2)ccc1Oc1cccc(-c2cn[nH]c2)c1C#N [Compound I-262],< 5,< 5
CC1OC(=O)c2c(Oc3ccc(C(=O)NC4CC(C)(C)NC(C)(C)C4)cc3Cl)cccc21 (stereo not shown) [Compound I-401],< 5,< 5
CC1(C)CC(NC(=O)c2ccc(Oc3cccc(-c4cncnc4)c3C#N)c(Cl)c2)CC(C)(C)N1 [Compound I-340],5 to 20,< 5
CC1(C)CC(NC(=O)c2ccc(Oc3cccc(-c4ccc(O)nc4)c3C#N)c(Cl)c2)CC(C)(C)N1 [Compound I-558],< 5,< 5
CC1(C)CC(NC(=O)c2ccc(Oc3cccc(I)c3C#N)c(Cl)c2)CC(C)(C)N1 [Compound I-257],< 5,< 5
CC1(C)CC(N2CCc3cc(Oc4ccccc4C#N)c(Cl)cc3C2=O)CC(C)(C)N1 [Compound I-163],> 80,20 to 80
CC1(C)CC(NC(=O)c2ccc(Oc3cccc4c3CCNC4)c(Cl)c2)CC(C)(C)N1 [Compound I-423],20 to 80,< 5
CC1(C)CC(NC(=O)c2ccc(Oc3cccc(-c4ccncc4)c3C#N)c(Cl)c2)CC(C)(C)N1 [Compound I-339],< 5,< 5
Cc1cc(C(=O)NC2CC(C)(C)NC(C)(C)C2)ccc1Oc1cccc(Br)c1C#N [Compound I-259],< 5,< 5
CCc1cccc(Oc2ccc(C(=O)NC3CC(C)(C)NC(C)(C)C3)cc2Cl)c1-c1cccnc1 [Compound I-343],20 to 80,20 to 80
CC1(C)CC(NC(=O)c2ccc(C#Cc3ccccc3)cc2)CC(C)(C)N1 [Compound I-173],5 to 20,5 to 20
CC1(C)CC(NC(=O)c2ccc(-n3ncc4ccccc43)c(Cl)c2)CC(C)(C)N1 [Compound I-327],5 to 20,< 5
CC1(C)CC(NC(=O)N2CCC(Oc3cccc(-c4cn[nH]c4)c3C#N)CC2)CC(C)(C)N1 [Compound I-429],> 80,20 to 80
CN(C(=O)c1ccc(Oc2ccccc2C#N)c(Cl)c1)C1CC(C)(C)NC(C)(C)C1 [Compound I-344],> 80,5 to 20
CC1(C)CC(NC(=O)c2ccc(Oc3cccc(-c4cn[nH]c4)c3C#N)c(Br)c2)CC(C)(C)N1 [Compound I-347],< 5,< 5
CC1(C)CC(NC(=O)c2ccc(Oc3cccc(-c4ccncc4Cl)c3C#N)c(Cl)c2)CC(C)(C)N1 [Compound I-586],< 5,< 5
CC1(C)CC(NC(=O)c2ccc(Oc3ccccc3-c3cccnc3)c(Cl)c2)CC(C)(C)N1 [Compound I-207],20 to 80,< 5
CC1(C)CC(NC(=O)c2ccc(Oc3cccc(-c4cn[nH]c4)c3C#N)c(F)c2)CC(C)(C)N1 [Compound I-398],5 to 20,< 5
CC1(C)CC(NC(=O)c2ccc(COc3cccc(-c4ccc(N)cc4)c3)cc2)CC(C)(C)N1 [Compound I-155],–,20 to 80
